Laboratory results: ChEMBL document CHEMBL1759997, “Discovery of a piperazine urea based compound as a potent, selective, orally bioavailable melanocortin subtype-4 receptor partial agonist” (Bioorg Med Chem Lett, 2011)
Calls of active or inactive are those of the source. The calls are words filed in the database; no cut-off is given here.

Tests used:
[1] = molecular target: T1, Melanocyte-stimulating hormone receptor (Homo sapiens, UniProt Q01726); assay: Displacement of [125I]NDP-alpha-MSH from human MC1 receptor expressed in CHO cells; assay type: cell-based
Target sequence in this assay (Q01726 whole entry): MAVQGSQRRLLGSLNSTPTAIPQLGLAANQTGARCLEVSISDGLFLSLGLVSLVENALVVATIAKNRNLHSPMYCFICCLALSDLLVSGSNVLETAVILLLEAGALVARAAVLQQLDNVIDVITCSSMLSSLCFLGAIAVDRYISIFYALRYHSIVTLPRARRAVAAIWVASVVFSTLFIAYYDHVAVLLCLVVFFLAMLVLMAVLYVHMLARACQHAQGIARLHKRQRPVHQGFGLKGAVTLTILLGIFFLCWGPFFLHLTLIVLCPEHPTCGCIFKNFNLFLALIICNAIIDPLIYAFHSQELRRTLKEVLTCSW

[2] = molecular target: T1, Melanocyte-stimulating hormone receptor; assay: Agonist activity at human MC1 receptor expressed in CHO cells assessed as cAMP accumulation; assay type: functional, cell-based
Target sequence in this assay (Q01726 whole entry): as above

[3] = molecular target: T2, Melanocortin receptor 4 (Homo sapiens, UniProt P32245); assay: Agonist activity at human MC4 receptor expressed in CHO cells assessed as cAMP accumulation at 10 uM relative to alpha-MSH; assay type: functional, cell-based
[4] = molecular target: T3, Melanocortin receptor 5 (Homo sapiens, UniProt P33032); assay: Displacement of [125I]NDP-alpha-MSH from human MC5 receptor expressed in CHO cells; assay type: cell-based
[5] = molecular target: T2, Melanocortin receptor 4; assay: Displacement of [125I]NDP-alpha-MSH from human MC4 receptor expressed in CHO cells; assay type: cell-based
[6] = molecular target: T3, Melanocortin receptor 5; assay: Agonist activity at human MC5 receptor expressed in CHO cells assessed as cAMP accumulation; assay type: functional, cell-based
[7] = molecular target: T4, Melanocortin receptor 3 (Homo sapiens, UniProt P41968); assay: Displacement of [125I]NDP-alpha-MSH from human MC3 receptor expressed in CHO cells; assay type: cell-based
[8] = Oral bioavailability in Sprague-Dawley rat at 1 mg/kg and 4 mg/kg; assay type: ADME, organism-based; conditions: in vivo
[9] = molecular target: T2, Melanocortin receptor 4; assay: Agonist activity at human MC4 receptor expressed in CHO cells assessed as cAMP accumulation; assay type: functional, cell-based
[10] = Volume of distribution in Sprague-Dawley rat at 1 mg/kg, iv and 4 mg/kg, po; assay type: ADME, organism-based; conditions: in vivo, read-out: Vdss
[11] = molecular target: T1, Melanocyte-stimulating hormone receptor; assay: Agonist activity at human MC1 receptor expressed in CHO cells assessed as cAMP accumulation at 10 uM relative to alpha-MSH; assay type: functional, cell-based
Target sequence in this assay (Q01726 whole entry, looked up): as the sequence (Q01726 whole entry) above

[12] = molecular target: T4, Melanocortin receptor 3; assay: Agonist activity at human MC3 receptor expressed in CHO cells assessed as cAMP accumulation at 10 uM relative to alpha-MSH; assay type: functional, cell-based
[13] = Half life in Sprague-Dawley rat at 1 mg/kg, iv and 4 mg/kg, po; assay type: ADME, organism-based; conditions: in vivo
[14] = molecular target: T3, Melanocortin receptor 5; assay: Agonist activity at human MC5 receptor expressed in CHO cells assessed as cAMP accumulation at 10 uM relative to alpha-MSH; assay type: functional, cell-based
[15] = Clearance in Sprague-Dawley rat at 1 mg/kg, iv and 4 mg/kg, po; assay type: ADME, organism-based; conditions: in vivo
[16] = Clearance in Beagle dog at 1 mg/kg, po; assay type: ADME, organism-based, Canis lupus familiaris; set-up: dose 1 mg/kg, route oral; conditions: in vivo
[17] = Binding affinity to calcium channel
[18] = Binding affinity to sodium channel
[19] = Oral bioavailability in rhesus monkey at 1 mg/kg; assay type: ADME, organism-based, Macaca mulatta; conditions: in vivo
[20] = Clearance in rhesus monkey at 1 mg/kg, po; assay type: ADME, organism-based, Macaca mulatta; set-up: dose 1 mg/kg, route oral; conditions: in vivo
[21] = tested on: Rattus norvegicus; assay: Antiobesity activity in diet-induced obesity rat model assessed as reduction in body weight at 20 mg/kg, po BID for 14 days relative to control; assay type: functional, organism-based; set-up: dose 20 mg/kg
[22] = tested on: Mus musculus; assay: Increase in erectile activity in CN-stimulated mouse at 10 mg/kg, iv; assay type: functional, organism-based; set-up: dose 10 mg/kg
[23] = tested on: Mus musculus; assay: Antiobesity activity in wild type mouse assessed as reduction in food intake at 20 mg/kg after 4 hrs post dosing relative to control; assay type: functional; set-up: scale not given: the % may be the effect or the level left
[24] = molecular target: Voltage-gated inwardly rectifying potassium channel KCNH2 (Homo sapiens, UniProt Q12809); assay: Inhibition of human ERG
[25] = tested on: Canis familiaris; assay: Volume of distribution in Beagle dog at 1 mg/kg, po; assay type: ADME, organism-based, Canis lupus familiaris; set-up: dose 1 mg/kg, route oral; conditions: in vivo
[26] = Half life in rhesus monkey at 1 mg/kg, po; assay type: ADME, organism-based, Macaca mulatta; set-up: dose 1 mg/kg, route oral; conditions: in vivo
[27] = tested on: Rhesus monkey; assay: Volume of distribution in rhesus monkey at 1 mg/kg, po; assay type: ADME, organism-based, Macaca mulatta; set-up: dose 1 mg/kg, route oral; conditions: in vivo
[28] = tested on: Mus musculus; assay: Antiobesity activity in diet-induced obesity mouse model assessed as reduction in food intake at 20 mg/kg after 4 hrs post dosing relative to control; assay type: functional, organism-based; set-up: dose 20 mg/kg
[29] = tested on: Rattus norvegicus; assay: Antiobesity activity in diet-induced obesity rat model assessed as reduction in body weight at 5 mg/kg, po BID for 14 days relative to control; assay type: functional, organism-based; set-up: dose 5 mg/kg
[30] = Half life in Beagle dog at 1 mg/kg, po; assay type: ADME, organism-based, Canis lupus familiaris; set-up: dose 1 mg/kg, route oral; conditions: in vivo
[31] = tested on: Rattus norvegicus; assay: Antiobesity activity in diet-induced obesity rat model assessed as reduction in body weight at 10 mg/kg, po BID for 14 days relative to control; assay type: functional, organism-based; set-up: dose 10 mg/kg
[32] = Plasma concentration in rat at 10 mg/kg, iv after 15 mins; assay type: ADME, organism-based; set-up: dose 10 mg/kg, route intravenous
[33] = Oral bioavailability in Beagle dog at 1 mg/kg; assay type: ADME, organism-based, Canis lupus familiaris; conditions: in vivo
[34] = tested on: Mus musculus; assay: Antiobesity activity in MC3R/MC4R knockout mouse assessed as reduction in food intake at 20 mg/kg after 4 hrs post dosing relative to control; assay type: functional, organism-based; set-up: dose 20 mg/kg
[35] = Plasma concentration in rat at 0.3 mg/kg, iv after 15 mins; assay type: ADME, organism-based; set-up: dose 0.3 mg/kg, route intravenous
[36] = tested on: Mus musculus; assay: Increase in erectile activity in CN-stimulated mouse at 0.3 mg/kg, iv; assay type: functional, organism-based; set-up: dose 0.3 mg/kg

T2 sequence (P32245 whole entry): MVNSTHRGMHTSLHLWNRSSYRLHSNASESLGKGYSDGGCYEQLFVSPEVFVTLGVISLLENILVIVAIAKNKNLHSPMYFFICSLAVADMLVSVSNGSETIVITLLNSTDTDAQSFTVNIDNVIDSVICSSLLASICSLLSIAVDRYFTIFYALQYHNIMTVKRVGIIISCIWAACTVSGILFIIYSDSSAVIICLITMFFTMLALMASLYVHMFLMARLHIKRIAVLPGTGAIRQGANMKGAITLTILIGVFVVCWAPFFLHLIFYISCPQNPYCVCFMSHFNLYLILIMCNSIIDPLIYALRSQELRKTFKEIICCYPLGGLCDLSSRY
T3 sequence (P33032 whole entry): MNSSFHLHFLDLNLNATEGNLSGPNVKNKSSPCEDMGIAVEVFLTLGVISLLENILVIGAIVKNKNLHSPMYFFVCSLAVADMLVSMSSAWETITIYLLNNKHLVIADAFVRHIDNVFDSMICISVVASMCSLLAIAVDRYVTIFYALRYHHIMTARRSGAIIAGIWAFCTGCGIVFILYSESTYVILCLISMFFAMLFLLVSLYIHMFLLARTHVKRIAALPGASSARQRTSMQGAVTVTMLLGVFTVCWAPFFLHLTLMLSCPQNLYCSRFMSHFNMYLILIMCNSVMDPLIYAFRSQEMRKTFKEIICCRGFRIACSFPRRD
T4 sequence (P41968 whole entry): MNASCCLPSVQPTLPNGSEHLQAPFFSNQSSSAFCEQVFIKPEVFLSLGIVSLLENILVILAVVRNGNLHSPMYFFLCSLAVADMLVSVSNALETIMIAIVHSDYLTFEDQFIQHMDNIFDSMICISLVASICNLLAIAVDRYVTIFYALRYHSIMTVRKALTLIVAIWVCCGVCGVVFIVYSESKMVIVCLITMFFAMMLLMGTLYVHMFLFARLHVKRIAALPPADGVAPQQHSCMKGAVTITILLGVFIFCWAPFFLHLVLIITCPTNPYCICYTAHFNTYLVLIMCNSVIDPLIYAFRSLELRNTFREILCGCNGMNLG
Voltage-gated inwardly rectifying potassium channel KCNH2, sequence (Q12809 whole entry): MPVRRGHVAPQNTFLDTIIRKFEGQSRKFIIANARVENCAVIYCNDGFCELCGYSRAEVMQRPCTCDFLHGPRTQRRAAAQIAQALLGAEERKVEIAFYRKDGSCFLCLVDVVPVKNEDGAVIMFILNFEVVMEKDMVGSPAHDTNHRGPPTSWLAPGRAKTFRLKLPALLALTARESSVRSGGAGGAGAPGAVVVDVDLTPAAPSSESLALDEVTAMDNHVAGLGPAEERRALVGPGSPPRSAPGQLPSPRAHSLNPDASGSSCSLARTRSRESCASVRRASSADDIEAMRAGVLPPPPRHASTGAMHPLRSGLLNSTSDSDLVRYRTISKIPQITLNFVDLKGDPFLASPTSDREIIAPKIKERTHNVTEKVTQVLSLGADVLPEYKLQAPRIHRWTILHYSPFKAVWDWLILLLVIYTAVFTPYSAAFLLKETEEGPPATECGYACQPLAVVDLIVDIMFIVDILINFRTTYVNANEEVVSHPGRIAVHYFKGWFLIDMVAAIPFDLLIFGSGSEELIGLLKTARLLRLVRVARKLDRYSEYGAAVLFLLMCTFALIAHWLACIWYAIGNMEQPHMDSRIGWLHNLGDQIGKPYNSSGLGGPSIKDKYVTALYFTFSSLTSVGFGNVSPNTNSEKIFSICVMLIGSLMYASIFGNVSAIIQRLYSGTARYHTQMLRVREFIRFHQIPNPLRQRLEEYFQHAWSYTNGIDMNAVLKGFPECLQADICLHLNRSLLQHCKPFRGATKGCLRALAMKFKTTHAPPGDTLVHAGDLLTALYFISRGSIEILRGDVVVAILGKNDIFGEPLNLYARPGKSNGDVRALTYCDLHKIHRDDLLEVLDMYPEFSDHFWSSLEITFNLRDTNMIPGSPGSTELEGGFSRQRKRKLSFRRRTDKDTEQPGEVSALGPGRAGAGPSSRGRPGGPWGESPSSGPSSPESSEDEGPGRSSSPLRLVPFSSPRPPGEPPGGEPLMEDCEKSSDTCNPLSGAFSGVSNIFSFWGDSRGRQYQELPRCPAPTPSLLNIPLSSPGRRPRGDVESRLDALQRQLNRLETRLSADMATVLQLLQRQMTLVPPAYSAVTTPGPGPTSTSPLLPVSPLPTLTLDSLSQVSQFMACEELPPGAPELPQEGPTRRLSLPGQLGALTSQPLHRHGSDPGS

| SMILES | IC50 [1] [nM] | EC50 [2] [nM] | Activity [3] [%] | IC50 [4] [nM] | IC50 [5] [nM] | EC50 [6] [nM] | IC50 [7] [nM] | bioavailability [8] [%] | EC50 [9] [nM] | Vd [10] [L/kg] | Activity [11] [%] | Activity [12] [%] | half-life [13] [h] | Activity [14] [%] | clearance [15] [mL/min/kg] | further results |
| --- | --- | --- | --- | --- | --- | --- | --- | --- | --- | --- | --- | --- | --- | --- | --- | --- |
| C[C@@H]1CN(C(=O)N[C@H](Cc2ccc(F)cc2)C(=O)N2CCC(C(=O)NC(C)(C)C)(C3CCCCC3)CC2)C[C@@H](C)N1 | 2100 | 260 | 66 | 1400 | 11 | 1000 | 970 | 1.9 | 18 | 9.2 | 39 | 2.8 | 4.2 | 31 | 43 |  |
| C[C@H]1CN(C(=O)N[C@H](Cc2ccc(F)cc2)C(=O)N2CCC(C(=O)NC(C)(C)C)(C3CCCCC3)CC2)C[C@H](C)N1 | 3300 | 250 | 58 | 1400 | 12 | 1400 | 740 |  | 58 |  | 46 | 2 |  | 30 |  |  |
| CC[C@@H]1CN(C(=O)N[C@H](Cc2ccc(F)cc2)C(=O)N2CCC(C(=O)NC(C)(C)C)(C3CCCCC3)CC2)C[C@@H](CC)N1 | 2800 | 400 | 18 | 1300 | 5.1 |  | 390 | 18 |  | 8.2 | 31 | 0 | 1.8 | 1 | 62 |  |
| C[C@@H]1CN(C(=O)N[C@H](Cc2ccc(F)cc2)C(=O)N2CCC(C(=O)NC(C)(C)C)(C3CCCCC3)CC2)C[C@H](C)N1 | 5100 |  | 59 | 850 | 4.9 | > 3000 | 650 | 28 | 22 | 4.7 | 30 | 3.6 | 2 | 22 | 35 | CL/F [16]: 5.4 mL/min/kg; Activity [17]: 9.6 µM; Activity [18]: 6.8 µM; bioavailability [19]: 20%; CL/F [20]: 5.2 mL/min/kg; Activity [21]: Active; Activity [22]: inactive; Activity [23]: 37%; INH [24]: > 10 µM; Vdss [25]: 1.8 L/kg; half-life [26]: 5.3 h; Vdss [27]: 1 L/kg; Activity [28]: Active; Activity [29]: Active; half-life [30]: 5.1 h; Activity [31]: Active; concentration at 0.25 h [32]: 4700 nM; bioavailability [33]: 118%; Activity [34]: inactive |
| CC[C@H](NC(C)=O)c1cc(Cl)ccc1C1CCN(C(=O)[C@@H]2CN(C(C)(C)C)C[C@H]2c2ccc(F)cc2F)CC1 |  |  |  |  |  |  |  |  |  |  |  |  |  |  |  | concentration at 0.25 h [35]: 47 nM; Activity [22]: Active; Activity [36]: Active; Activity [31]: Active |
| CC[C@@H]1CN(C(=O)N[C@H](Cc2ccc(F)cc2)C(=O)N2CCC(C(=O)NC(C)(C)C)(C3CCCCC3)CC2)C[C@H](CC)N1 | 2100 | 420 | 41 | 430 | 4.7 |  | 230 | 46 | 13 | 4.7 | 24 | 1.2 | 1.7 | 14 | 36 |  |
| C[C@@H]1CN(C(=O)N[C@H](Cc2ccc(Cl)cc2)C(=O)N2CCC(C(=O)NC(C)(C)C)(C3CCCCC3)CC2)C[C@H](C)N1 | 1500 | 280 | 15 | 54 | 0.78 | 210 | 33 |  |  |  | 24 | 1.3 |  | 26 |  |  |
| C[C@@H]1CN(C(=O)N[C@H](Cc2ccc(F)cc2)C(=O)N2CCC(C(=O)NC(C)(C)C)(C3CCCCC3)CC2)C[C@H](C)N1C | 7800 | 910 | 21 | 1400 | 16 |  | 760 |  | 60 |  | 14 | 0.6 |  | 14 |  |  |
